Tested on: BRD pathogens, M. haemolytica and P. multocida
Test: MIC screening panel of BRD pathogens (antibacterial / non-antibacterial)
Conditions: Table H, Formula (1-A1) compounds

**Q.** CCCNC[C@]1(O)[C@H](C)O[C@@H](O[C@H]2[C@H](C)[C@@H](O[C@@H]3O[C@H](C)C[C@H](N(C)C(=O)NCCN4CCCCC4)[C@H]3O)[C@](C)(O)C[C@@H](C)CN[C@H](C)[C@@H](O)[C@](C)(O)[C@@H](CC)OC(=O)[C@@H]2C)C[C@@]1(C)OC [Example H-98, 1-((2S,3R,4S,6R)-2-(((2R,3S,4R,5R,8R,10R,11R,12S,13S,14R)-2-ethyl-3,4,10-trihydroxy-13-(((2R,4R,5S,6S)-5-hydroxy-4-methoxy-4,6-dimethyl-5-((propylamino)methyl)tetrahydro-2H-pyran-2-yl)oxy)-3,5,8,10,12,14-hexamethyl-15-oxo-1-oxa-6-azacyclopentadecan-11-yl)oxy)-3-hydroxy-6-methyltetrahydro-2H-pyran-4-yl)-1-methyl-3-(2-(piperidin-1-yl)ethyl)urea] was tested. Which “MIC ≤64 μg/mL for at least one BRD bacterial strain (flag * at Ex #)” value did it give?
**A.** The value was “H-98* (*MIC ≤64 μg/mL for at least one BRD bacterial strain)”.

Same assay, conditions: read-out: MIC ≤64 μg/mL for at least one of the bacterial strains (flag * at Ex #)

**Q.** For CC[C@H]1OC(=O)[C@H](C)[C@@H](O[C@H]2C[C@@](C)(OC)[C@](O)(CN3CCSCC3)[C@H](C)O2)[C@H](C)[C@@H](O[C@@H]2O[C@H](C)C[C@H](N(C)C(=O)N(C)c3ccccc3)[C@H]2O)[C@](C)(O)C[C@@H](C)CN[C@H](C)[C@@H](O)[C@]1(C)O [Example J-11, 1-((2S,3R,4S,6R)-2-(((2R,3S,4R,5R,8R,10R,11R,12S,13S,14R)-2-ethyl-3,4,10-trihydroxy-13-(((2R,4R,5S,6S)-5-hydroxy-4-methoxy-4,6-dimethyl-5-(thiomorpholinomethyl)tetrahydro-2H-pyran-2-yl)oxy)-3,5,8,10,12,14-hexamethyl-15-oxo-1-oxa-6-azacyclopentadecan-11-yl)oxy)-3-hydroxy-6-methyltetrahydro-2H-pyran-4-yl)-1,3-dimethyl-3-phenylurea], which MIC is on record?
**A.** The MIC was less than 64 µg/mL.

Same assay, conditions: read-out: antibacterial / non-antibacterial (MIC for the BRD pathogens)

**Q.** With CCCNC[C@]1(O)[C@H](C)O[C@@H](O[C@H]2[C@H](C)[C@@H](O[C@@H]3O[C@H](C)C[C@H](N(C)C(=O)Nc4ccccc4F)[C@H]3O)[C@](C)(O)C[C@@H](C)CN[C@H](C)[C@@H](O)[C@](C)(O)[C@@H](CC)OC(=O)[C@@H]2C)C[C@@]1(C)OC [Example H-82, 1-((2S,3R,4S,6R)-2-(((2R,3S,4R,5R,8R,10R,11R,12S,13S,14R)-2-ethyl-3,4,10-trihydroxy-13-(((2R,4R,5S,6S)-5-hydroxy-4-methoxy-4,6-dimethyl-5-((propylamino)methyl)tetrahydro-2H-pyran-2-yl)oxy)-3,5,8,10,12,14-hexamethyl-15-oxo-1-oxa-6-azacyclopentadecan-11-yl)oxy)-3-hydroxy-6-methyltetrahydro-2H-pyran-4-yl)-3-(2-fluorophenyl)-1-methylurea] as the compound, how does the MIC read?
**A.** The MIC was greater than 64 µg/mL.

**Q.** CCCNC[C@]1(O)[C@H](C)O[C@@H](O[C@H]2[C@H](C)[C@@H](O[C@@H]3O[C@H](C)C[C@H](N(C)C(=O)Nc4ccc(Cl)cc4)[C@H]3O)[C@](C)(O)C[C@@H](C)CN[C@H](C)[C@@H](O)[C@](C)(O)[C@@H](CC)OC(=O)[C@@H]2C)C[C@@]1(C)OC [Example H-84, 3-(4-chlorophenyl)-1-((2S,3R,4S,6R)-2-(((2R,3S,4R,5R,8R,10R,11R,12S,13S,14R)-2-ethyl-3,4,10-trihydroxy-13-(((2R,4R,5S,6S)-5-hydroxy-4-methoxy-4,6-dimethyl-5-((propylamino)methyl)tetrahydro-2H-pyran-2-yl)oxy)-3,5,8,10,12,14-hexamethyl-15-oxo-1-oxa-6-azacyclopentadecan-11-yl)oxy)-3-hydroxy-6-methyltetrahydro-2H-pyran-4-yl)-1-methylurea] was tested. Which MIC did it give?
**A.** The MIC was greater than 64 µg/mL.

**Q.** Which MIC does the source give for CCCNC[C@]1(O)[C@H](C)O[C@@H](O[C@H]2[C@H](C)[C@@H](O[C@@H]3O[C@H](C)C[C@H](N(C)C(=O)Nc4cccc(F)c4)[C@H]3O)[C@](C)(O)C[C@@H](C)CN[C@H](C)[C@@H](O)[C@](C)(O)[C@@H](CC)OC(=O)[C@@H]2C)C[C@@]1(C)OC [Example H-85, 1-((2S,3R,4S,6R)-2-(((2R,3S,4R,5R,8R,10R,11R,12S,13S,14R)-2-ethyl-3,4,10-trihydroxy-13-(((2R,4R,5S,6S)-5-hydroxy-4-methoxy-4,6-dimethyl-5-((propylamino)methyl)tetrahydro-2H-pyran-2-yl)oxy)-3,5,8,10,12,14-hexamethyl-15-oxo-1-oxa-6-azacyclopentadecan-11-yl)oxy)-3-hydroxy-6-methyltetrahydro-2H-pyran-4-yl)-3-(3-fluorophenyl)-1-methylurea] here?
**A.** Its MIC is greater than 64 µg/mL.

**Q.** CCCNC[C@]1(O)[C@H](C)O[C@@H](O[C@H]2[C@H](C)[C@@H](O[C@@H]3O[C@H](C)C[C@H](N(C)C(=O)Nc4cccc(OC)c4)[C@H]3O)[C@](C)(O)C[C@@H](C)CN[C@H](C)[C@@H](O)[C@](C)(O)[C@@H](CC)OC(=O)[C@@H]2C)C[C@@]1(C)OC [Example H-86, 1-((2S,3R,4S,6R)-2-(((2R,3S,4R,5R,8R,10R,11R,12S,13S,14R)-2-ethyl-3,4,10-trihydroxy-13-(((2R,4R,5S,6S)-5-hydroxy-4-methoxy-4,6-dimethyl-5-((propylamino)methyl)tetrahydro-2H-pyran-2-yl)oxy)-3,5,8,10,12,14-hexamethyl-15-oxo-1-oxa-6-azacyclopentadecan-11-yl)oxy)-3-hydroxy-6-methyltetrahydro-2H-pyran-4-yl)-3-(3-methoxyphenyl)-1-methylurea] was tested. Which MIC did it give?
**A.** Its MIC is greater than 64 µg/mL.

**Q.** CCCNC[C@]1(O)[C@H](C)O[C@@H](O[C@H]2[C@H](C)[C@@H](O[C@@H]3O[C@H](C)C[C@H](N(C)C(=O)NC)[C@H]3O)[C@](C)(O)C[C@@H](C)CN[C@H](C)[C@@H](O)[C@](C)(O)[C@@H](CC)OC(=O)[C@@H]2C)C[C@@]1(C)OC [Example H-92, 1-((2S,3R,4S,6R)-2-(((2R,3S,4R,5R,8R,10R,11R,12S,13S,14R)-2-ethyl-3,4,10-trihydroxy-13-(((2R,4R,5S,6S)-5-hydroxy-4-methoxy-4,6-dimethyl-5-((propylamino)methyl)tetrahydro-2H-pyran-2-yl)oxy)-3,5,8,10,12,14-hexamethyl-15-oxo-1-oxa-6-azacyclopentadecan-11-yl)oxy)-3-hydroxy-6-methyltetrahydro-2H-pyran-4-yl)-1,3-dimethylurea] was tested. Which MIC did it give?
**A.** Its MIC is greater than 64 µg/mL.

**Q.** For CCCNC(=O)N(C)[C@H]1C[C@@H](C)O[C@@H](O[C@@H]2[C@@H](C)[C@H](O[C@H]3C[C@@](C)(OC)[C@](O)(CNC4CC4)[C@H](C)O3)[C@@H](C)C(=O)O[C@H](CC)[C@@](C)(O)[C@H](O)[C@@H](C)NC[C@H](C)C[C@@]2(C)O)[C@@H]1O [Example H-93, 1-((2S,3R,4S,6R)-2-(((2R,3S,4R,5R,8R,10R,11R,12S,13S,14R)-13-(((2R,4R,5S,6S)-5-((cyclopropylamino)methyl)-5-hydroxy-4-methoxy-4,6-dimethyltetrahydro-2H-pyran-2-yl)oxy)-2-ethyl-3,4,10-trihydroxy-3,5,8,10,12,14-hexamethyl-15-oxo-1-oxa-6-azacyclopentadecan-11-yl)oxy)-3-hydroxy-6-methyltetrahydro-2H-pyran-4-yl)-1-methyl-3-propylurea], which MIC is on record?
**A.** Its MIC is greater than 64 µg/mL.

**Q.** How did the MIC turn out when CCCNC(=O)N(C)[C@H]1C[C@@H](C)O[C@@H](O[C@@H]2[C@@H](C)[C@H](O[C@H]3C[C@@](C)(OC)[C@](O)(CNC4CCC4)[C@H](C)O3)[C@@H](C)C(=O)O[C@H](CC)[C@@](C)(O)[C@H](O)[C@@H](C)NC[C@H](C)C[C@@]2(C)O)[C@@H]1O [Example H-94, 1-((2S,3R,4S,6R)-2-(((2R,3S,4R,5R,8R,10R,11R,12S,13S,14R)-13-(((2R,4R,5S,6S)-5-((cyclobutylamino)methyl)-5-hydroxy-4-methoxy-4,6-dimethyltetrahydro-2H-pyran-2-yl)oxy)-2-ethyl-3,4,10-trihydroxy-3,5,8,10,12,14-hexamethyl-15-oxo-1-oxa-6-azacyclopentadecan-11-yl)oxy)-3-hydroxy-6-methyltetrahydro-2H-pyran-4-yl)-1-methyl-3-propylurea] was run?
**A.** Its MIC is greater than 64 µg/mL.

**Q.** Which MIC does the source give for CCCNC[C@]1(O)[C@H](C)O[C@@H](O[C@H]2[C@H](C)[C@@H](O[C@@H]3O[C@H](C)C[C@H](N(C)C(=O)N(C)c4ccc(O)cc4)[C@H]3O)[C@](C)(O)C[C@@H](C)CN[C@H](C)[C@@H](O)[C@](C)(O)[C@@H](CC)OC(=O)[C@@H]2C)C[C@@]1(C)OC [Example H-99, 1-((2S,3R,4S,6R)-2-(((2R,3S,4R,5R,8R,10R,11R,12S,13S,14R)-2-ethyl-3,4,10-trihydroxy-13-(((2R,4R,5S,6S)-5-hydroxy-4-methoxy-4,6-dimethyl-5-((propylamino)methyl)tetrahydro-2H-pyran-2-yl)oxy)-3,5,8,10,12,14-hexamethyl-15-oxo-1-oxa-6-azacyclopentadecan-11-yl)oxy)-3-hydroxy-6-methyltetrahydro-2H-pyran-4-yl)-3-(4-hydroxyphenyl)-1,3-dimethylurea] here?
**A.** The MIC was greater than 64 µg/mL.

**Q.** CCCNC[C@]1(O)[C@H](C)O[C@@H](O[C@H]2[C@H](C)[C@@H](O[C@@H]3O[C@H](C)C[C@H](N(C)C(=O)N(C)c4ccccc4)[C@H]3O)[C@](C)(O)C[C@@H](C)CN(C)[C@H](C)[C@@H](O)[C@](C)(O)[C@@H](CC)OC(=O)[C@@H]2C)C[C@@]1(C)OC [Example H-101, 1-((2S,3R,4S,6R)-2-(((2R,3S,4R,5R,8R,10R,11R,12S,13S,14R)-2-ethyl-3,4,10-trihydroxy-13-(((2R,4R,5S,6S)-5-hydroxy-4-methoxy-4,6-dimethyl-5-((propylamino)methyl)tetrahydro-2H-pyran-2-yl)oxy)-3,5,6,8,10,12,14-heptamethyl-15-oxo-1-oxa-6-azacyclopentadecan-11-yl)oxy)-3-hydroxy-6-methyltetrahydro-2H-pyran-4-yl)-1,3-dimethyl-3-phenylurea] was tested. Which MIC did it give?
**A.** The MIC was greater than 64 µg/mL.

**Q.** For CC[C@H]1OC(=O)[C@H](C)[C@@H](O[C@H]2C[C@@](C)(OC)[C@](O)(CNC)[C@H](C)O2)[C@H](C)[C@@H](O[C@@H]2O[C@H](C)C[C@H](N(C)C(=O)N3CCN(CC)CC3)[C@H]2O)[C@](C)(O)C[C@@H](C)CN[C@H](C)[C@@H](O)[C@]1(C)O [Example I-1, 4-ethyl-N-((2S,3R,4S,6R)-2-(((2R,3S,4R,5R,8R,10R,11R,12S,13S,14R)-2-ethyl-3,4,10-trihydroxy-13-(((2R,4R,5S,6S)-5-hydroxy-4-methoxy-4,6-dimethyl-5-((methylamino)methyl)tetrahydro-2H-pyran-2-yl)oxy)-3,5,8,10,12,14-hexamethyl-15-oxo-1-oxa-6-azacyclopentadecan-11-yl)oxy)-3-hydroxy-6-methyltetrahydro-2H-pyran-4-yl)-N-methylpiperazine-1-carboxamide], which MIC is on record?
**A.** Its MIC is greater than 64 µg/mL.

— patent US12295936B2, “Immunomodulating urea azalides” (Zoetis Services LLC, priority 2020, dated 2025)
